US5972890A, “Synthetic peptides for arterial imaging” (New England Deaconess Hospital Corporation, priority 1995, dated 1999)
Ends that are not written are not given here.

Test system: anti-SP-4 antiserum
Experiment: ELISA immunological cross-reactivity with anti-SP-4 antiserum
Assay type: binding
Conditions: ELISA plates coated with peptide or LDL, rabbit polyclonal anti-SP-4 antiserum
Protocol: To produce anti-synthetic peptide antisera, purified synthetic peptide was dissolved in PBS, pH 7.4 at a concentration of 1 mg/ml. The peptide solution was mixed with an equal volume of complete Freund's adjuvant and vortexed thoroughly until a thick emulsion was produced. New Zealand White rabbits (Millbrook Farms, Amherst, Mass.) were injected with a total of 0.5 mg synthetic peptide administered subcutaneously in the four dorsal quadrants. The rabbits were given a boost (injected at the same sites) with 0.5 mg peptide emulsified in incomplete Freund's adjuvant 2-3 weeks later. Eight to ten days after the first boost, the animals were given a second, identical boost and were bled of 30 ml 8 to 10 days later.
To test for immunological cross-reactivity microtiter plates (Immulon II Dynatech Labs, Chantilly, Va.) were coated with the purified synthetic peptide or LDL by an overnight incubation at 4° C. with 100 ng peptide per well in 50 mM carbonate, pH 9.6, and blocked for nonspecific binding with an additional overnight incubation with phosphate-buffered saline, pH 7.4 (PBS), 1% bovine serum albumin (BSA). Control wells were coated with BSA alone. After washing twice with PBS, the wells were filled with serial dilutions (1:10 to 1:100,000 made in PBS, 3% BSA) of a rabbit polyclonal antibody generated against the synthetic peptide(s) and incubated for 45 minutes at room temperature. Following thorough washing (3× with PBS, 0.1% BSA), the wells were filled with a 1:2000 dilution of goat anti-rabbit IgG-horseradish peroxidase conjugate (Atlantic Antibodies, Scarborough, Me.). After a final wash, the wells were filled with 3,3'-5,5'-tetramethybenzidine (TMB) microwell peroxidase substrate (Kirkegaard and Perry Labs, Gaithersburg, Md.) and read at 650 nm every two minutes on an ELISA-5 automated plate reader (Physica, New York, N.Y.). Results (see, e.g., FIGS. 4 and 5) are expressed as the initial velocity of substrate conversion (change in OD650 /hr), which is determined by a linear regression of 15 data points per well. Each data point represents the average of three measured data points from the same plate, run at the same time.

Q: For “YKLALEAARLLADAEGAK-NH2 [SP-6, H2 N-Tyr-Lys-Leu-Ala-Leu-Glu-Ala-Ala-Arg-Leu-Leu-Ala-Asp-Ala-Glu-Gly-Ala-Lys- CONH2]”, which “binding of anti-SP-4 antiserum to coated peptide or LDL” value (shortened to “binding of anti-SP-4 antiserum”) is on record?
A: Its value is “bind”.

Q: With “Ac-YKLALEAARLLADAEGAK-NH2 [SP-6A, CH3 CONH-Tyr-Lys-Leu-Ala-Leu-Glu-Ala-Ala-Arg-Leu-Leu-Ala-Asp-Ala-Glu-Gly-Ala-Lys-CONH2]” as the substance, how does the “binding of anti-SP-4 antiserum” value read?
A: Its value is “bind”.

Q: Which “binding of anti-SP-4 antiserum” value does the source give for “Ac-YRALVDTLKFVTQAEGAK-NH2 [SP-4A, CH3 CONH-Tyr-Arg-Ala-Leu-Val-Asp-Thr-Leu-Lys-Phe-Val-Thr-Gln-Ala-Glu-Gly-Ala-Lys-CONH2]” here?
A: The value was “bind”.

Q: Which “binding of anti-SP-4 antiserum” value does the source give for “Ac-YKLALEAARLLANAEGAK-NH2 [SP-8A, CH3 CONH-Tyr-Lys-Leu-Ala-Leu-Glu-Ala-Ala-Arg-Leu-Leu-Ala-Asn-Ala-Glu-Gly-Ala-Lys-CONH2]” here?
A: The value was “bind”.

Q: For “YKLALEAARLLANAEGAK-NH2 [SP-8, H2 N-Tyr-Lys-Leu-Ala-Leu-Glu-Ala-Ala-Arg-Leu-Leu-Ala-Asn-Ala-Glu-Gly-Ala-Lys- CONH2]”, which “binding of anti-SP-4 antiserum” value is on record?
A: Its value is “bind”.

Q: For “Ac-YRALVDYLKFVTQL-NH2 [SP-12A, CH3 CONH-Tyr-Arg-Ala-Leu-Val-Asp-Tyr-Leu-Lys-Phe-Val-Thr-Gln-Leu-CONH2]”, which “binding of anti-SP-4 antiserum” value is on record?
A: The value was “bind”.

Q: With “YRALVDTLKFVTQAEGAK-NH2 [SP-4, NH2 -Tyr-Arg-Ala-Leu-Val-Asp-Thr-Leu-Lys-Phe-Val-Thr-Gln-Ala-Glu-Gly-Ala-Lys-CONH2]” as the substance, how does the “binding of anti-SP-4 antiserum” value read?
A: Its value is “bind”.

Q: With “Ac-YRALVDTLK-NH2 [SP-14A, CH3 CONH-Tyr-Arg-Ala-Leu-Val-Asp-Thr-Leu-Lys-CONH2]” as the substance, how does the “binding of anti-SP-4 antiserum” value read?
A: Its value is “bind”.

Test system: not listed separately
Experiment: Plasma decay of 125I-labelled synthetic peptide after ear vein injection
Assay type: in vivo, rabbit
Conditions: at four hours
Protocol: Each labelled synthetic peptide preparation (containing, for example, 150 to 400 or more μCi of ^125 I-labelled peptide) in column elution buffer was injected into the marginal ear vein of the ballooned and healing New Zealand white rabbits or WHHL rabbits. Serial blood samples were obtained from the opposite ear during the ensuing 0-24 hours and were analyzed for radioactivity. The labelled peptide concentrations in the blood samples that were withdrawn over the first 10 minutes after injection were extrapolated to zero time to determine the time zero radioactivity in the calculation of average plasma radioactivity. […] Peptides SP15a, SP17, SP19a, SP21a, SP28, SP34a, and SP30 were cleared rapidly from the plasma with half-lives of about one minute or less; after one hour, the plasma levels were less than 10% of the injected dose and fell by an additional 1% over the next three hours. Peptides SP15a, SP17, SP21a, SP28, SP34a, and SP30 leveled off to a plasma level of 3-6%; peptide SP19a cleared more quickly and leveled off to a concentration of 0.3% (at four hours).

Q: With “Ac-YRALVDTLKFVTEQAKGA-NH2 [SP-19a, CH3 CONH-Tyr-Arg-Ala-Leu-Val-Asp-Thr-Leu-Lys-Phe-Val-Thr-Glu-Gln-Ala-Lys-Gly-Ala-CONH2]” as the substance, how does the “plasma concentration at which peptide leveled off” value read?
A: Its value is 0.3%.

Same assay, conditions: from one hour to four hours after injection

Q: For Ac-YVLDEFREKLNEELEALKQK-NH2 [SP-34a], which “additional fall of plasma level over the next three hours” value is on record?
A: Its value is 1%.

Q: Which “additional fall of plasma level over the next three hours” value does the source give for “YVPGVGVPGVGVPGVGVPGVG-NH2 [SP-30, H2 N-Tyr-Val-Pro-Gly-Val-Gly-Val-Pro-Gly-Val-Gly-Val-Pro-Gly-Val-Gly-Val-Pro- Gly-Val-Gly-CONH2]” here?
A: The value was 1%.

Q: Which “additional fall of plasma level over the next three hours” value does the source give for “Ac-YRALVDTEFKVKQEAGAK-NH2 [SP-21a, CH3 CONH-Tyr-Arg-Ala-Leu-Val-Asp-Thr-Glu-Phe-Lys-Val-Lys-Gln-Glu-Ala-Gly-Ala-Lys-CONH2]” here?
A: Its value is 1%.

Q: With “YAALDLNAVANKIADFEL-NH2 [SP-17, H2 N-Tyr-Ala-Ala-Leu-Asp-Leu-Asn-Ala-Val-Ala-Asn-Lys-Ile-Ala-Asp-Phe-Glu-Leu- CONH2]” as the substance, how does the “additional fall of plasma level over the next three hours” value read?
A: Its value is 1%.

Q: Which “additional fall of plasma level over the next three hours” value does the source give for “Ac-YAKFRETLEDTRDRMY-NH2 [SP-15a, CH3 CONH-Tyr-Ala-Lys-Phe-Arg-Glu-Thr-Leu-Glu-Asp-Thr-Arg-Asp-Arg-Met-Tyr-CONH2]” here?
A: The value was 1%.

Q: Which “additional fall of plasma level over the next three hours” value does the source give for “YVGVAPGVGVAPGVGVAPG [SP-28, H2 N-Tyr-Val-Gly-Val-Ala-Pro-Gly-Val-Gly-Val-Ala-Pro-Gly-Val-Gly-Val-Ala-Pro- Gly-OH]” here?
A: Its value is 1%.

Q: With “Ac-YRALVDTLKFVTEQAKGA-NH2 [SP-19a, CH3 CONH-Tyr-Arg-Ala-Leu-Val-Asp-Thr-Leu-Lys-Phe-Val-Thr-Glu-Gln-Ala-Lys-Gly-Ala-CONH2]” as the substance, how does the “additional fall of plasma level over the next three hours” value read?
A: The value was 1%.
